ChEMBL document CHEMBL5674860, “Optimized Dual-Glo Assay to identify co-culture-induced drug vulnerabilities in 3D CRC models” (2024)

How the values were obtained:
Format in all cases: functional, Homo sapiens
Set-up in all cases: dose or concentration left out as unconfirmed
[1] = tested on: Colon cancer organoid; assay: Optimized Dual-Glo assay to identify co-culture induced drug vulnerabilities using donated chemical probes and chemogenomics kinase set in O06 CRC organoid and F06 CAF mono and co-culture. […] Cell viability is reported both mono and co-culture models.
[2] = tested on: Colon cancer organoid; assay: Optimized Dual-Glo assay to identify co-culture induced drug vulnerabilities using donated chemical probes and chemogenomics kinase set in O14 CRC organoid and F14 CAF mono and co-culture. […] Cell viability is reported both mono and co-culture models.
[3] = tested on: Colon cancer organoid; assay: Optimized Dual-Glo assay to identify co-culture induced drug vulnerabilities using donated chemical probes and chemogenomics kinase set in O20 CRC organoid and F20 CAF mono and co-culture. […] Cell viability is reported both mono and co-culture models.
[4] = Culture type Co-Culture, Transduced with Lucferase2-P2A-EGFP lentivirus
[5] = Culture type Co-Culture, Transduced with Renilla-dsRed lentivirus
[6] = Culture type Mono-Culture, Transduced with Lucferase2-P2A-EGFP lentivirus
[7] = Culture type Mono-Culture, Transduced with Renilla-dsRed lentivirus

## C[C@@H]1CN(c2cc(-c3nn(C)c4ccc(OC5(C)CC5)cc34)ncn2)C[C@H](C)O1 [MLi-2-NC]
[1]; [4]
  Cell Viability: 21.8005%
[1]; [5]
  Cell Viability: 254.626%
[1]; [6]
  Cell Viability: 83.2909%
[1]; [7]
  Cell Viability: 98.8275%
[2]; [4]
  Cell Viability: 118.993%
[2]; [5]
  Cell Viability: 72.3586%
[2]; [6]
  Cell Viability: 109.582%
[2]; [7]
  Cell Viability: 102.606%
[3]; [4]
  Cell Viability: 112.711%
[3]; [5]
  Cell Viability: 86.6644%
[3]; [6]
  Cell Viability: 122.371%
[3]; [7]
  Cell Viability: 89.7102%

## COc1cc2ncn(-c3cc(OCc4ccccc4C(F)(F)F)c(C(N)=O)s3)c2cc1OC [GW843682X]
[1]; [4]
  Cell Viability: 4.781%
[1]; [5]
  Cell Viability: 182.458%
[1]; [6]
  Cell Viability: 3.81%
[1]; [7]
  Cell Viability: 121.646%
[2]; [4]
  Cell Viability: 8.715%
[2]; [5]
  Cell Viability: 209.484%
[2]; [6]
  Cell Viability: 23.2418%
[2]; [7]
  Cell Viability: 105.344%
[3]; [4]
  Cell Viability: 89.2195%
[3]; [5]
  Cell Viability: 152.214%
[3]; [6]
  Cell Viability: 57.1216%
[3]; [7]
  Cell Viability: 108.759%

## Nc1ccc(C(=O)Nc2cccc(-c3nc(N4CCOCC4)c4oc5ncccc5c4n3)c2)cn1
[1]; [4]
  Cell Viability: 78.745%
[1]; [5]
  Cell Viability: 81.5262%
[1]; [6]
  Cell Viability: 28.4733%
[1]; [7]
  Cell Viability: 93.3288%
[2]; [4]
  Cell Viability: 67.7704%
[2]; [5]
  Cell Viability: 105.191%
[2]; [6]
  Cell Viability: 42.3601%
[2]; [7]
  Cell Viability: 61.5192%
[3]; [4]
  Cell Viability: 142.389%
[3]; [5]
  Cell Viability: 75.1771%
[3]; [6]
  Cell Viability: 60.1963%
[3]; [7]
  Cell Viability: 81.7819%

## CCN(C(=O)CO)[C@H]1CN(/C(=N\C#N)Nc2cccc(OC(F)F)c2)N=C1c1ccc(Cl)c(Cl)c1
[1]; [4]
  Cell Viability: 100.328%
[1]; [5]
  Cell Viability: 102.729%
[1]; [6]
  Cell Viability: 73.2581%
[1]; [7]
  Cell Viability: 127.729%
[2]; [4]
  Cell Viability: 96.421%
[2]; [5]
  Cell Viability: 116.48%
[2]; [6]
  Cell Viability: 90.9581%
[2]; [7]
  Cell Viability: 97.9735%
[3]; [4]
  Cell Viability: 98.0443%
[3]; [5]
  Cell Viability: 141.776%
[3]; [6]
  Cell Viability: 125.834%
[3]; [7]
  Cell Viability: 95.5224%

## C=CC(=O)N1CCC([C@@H]2CCNc3c(C(N)=O)c(-c4ccc(Oc5ccccc5)cc4)nn32)CC1 [ZANUBRUTINIB]
[1]; [4]
  Cell Viability: 36.1998%
[1]; [5]
  Cell Viability: 136.235%
[1]; [6]
  Cell Viability: 10.7372%
[1]; [7]
  Cell Viability: 131.234%
[2]; [4]
  Cell Viability: 47.5574%
[2]; [5]
  Cell Viability: 261.02%
[2]; [6]
  Cell Viability: 57.577%
[2]; [7]
  Cell Viability: 123.54%
[3]; [4]
  Cell Viability: 8.425%
[3]; [5]
  Cell Viability: 202.782%
[3]; [6]
  Cell Viability: 10.0679%
[3]; [7]
  Cell Viability: 138.33%

## Cc1nc(N2CC[C@H](O)C2)ncc1-c1cc(C(F)(F)F)cc2[nH]ncc12
[1]; [4]
  Cell Viability: 111.861%
[1]; [5]
  Cell Viability: 161.788%
[1]; [6]
  Cell Viability: 77.8362%
[1]; [7]
  Cell Viability: 94.0965%
[2]; [4]
  Cell Viability: 63.6905%
[2]; [5]
  Cell Viability: 138.157%
[2]; [6]
  Cell Viability: 56.4353%
[2]; [7]
  Cell Viability: 87.4633%
[3]; [4]
  Cell Viability: 47.2711%
[3]; [5]
  Cell Viability: 153.575%
[3]; [6]
  Cell Viability: 55.4223%
[3]; [7]
  Cell Viability: 100.169%

## CN(C)C(=O)/C(C#N)=C/c1ccc(-c2nc3cnc4c(ccn4C)c3n2C2CCCCC2)o1
[1]; [4]
  Cell Viability: 100.774%
[1]; [5]
  Cell Viability: 167.563%
[1]; [6]
  Cell Viability: 117.157%
[1]; [7]
  Cell Viability: 133.695%
[2]; [4]
  Cell Viability: 95.1732%
[2]; [5]
  Cell Viability: 102.012%
[2]; [6]
  Cell Viability: 142.854%
[2]; [7]
  Cell Viability: 112.554%
[3]; [4]
  Cell Viability: 49.7098%
[3]; [5]
  Cell Viability: 127.191%
[3]; [6]
  Cell Viability: 136.658%
[3]; [7]
  Cell Viability: 125.979%

## COc1cc2c(cc1-c1c(C)noc1C)ncc1[nH]c(=O)n([C@H](C)c3ccccn3)c12
[1]; [4]
  Cell Viability: 43.5488%
[1]; [5]
  Cell Viability: 325.273%
[1]; [6]
  Cell Viability: 54.5625%
[1]; [7]
  Cell Viability: 294.029%
[2]; [4]
  Cell Viability: 36.9013%
[2]; [5]
  Cell Viability: 317.138%
[2]; [6]
  Cell Viability: 43.8564%
[2]; [7]
  Cell Viability: 208.742%
[3]; [4]
  Cell Viability: 26.0295%
[3]; [5]
  Cell Viability: 172.215%
[3]; [6]
  Cell Viability: 25.6738%
[3]; [7]
  Cell Viability: 101.868%

## Cc1sc2c(c1C)C(c1ccc(Cl)cc1)=N[C@@H](CC(=O)OC(C)(C)C)c1nnc(C)n1-2
[1]; [4]
  Cell Viability: 24.0633%
[1]; [5]
  Cell Viability: 301.325%
[1]; [6]
  Cell Viability: 25.9077%
[1]; [7]
  Cell Viability: 273.458%
[2]; [4]
  Cell Viability: 21.0352%
[2]; [5]
  Cell Viability: 390.207%
[2]; [6]
  Cell Viability: 21.1376%
[2]; [7]
  Cell Viability: 218.603%
[3]; [4]
  Cell Viability: 11.0659%
[3]; [5]
  Cell Viability: 145.881%
[3]; [6]
  Cell Viability: 17.1066%
[3]; [7]
  Cell Viability: 37.2064%
